Tests used:
[1] = Chloride efflux from SPQ-containing liposomes; conditions: 100% EPG liposomes, pH 6.1, 3 μg/ml
Procedure: Preparation of liposomes. Large unilamellar liposomes were prepared by reverse phase evaporation as previously described (Vecsey-Semjen et al., 1996). Liposomes were prepared of either 100% egg phosphatidylglycerol (EPG) or a mixture of EPC and EPG (1:1 W/W) in a buffer containing 100 mM KCl, 20 mM N-[2-Hydroxyethyl]piperazine-N′-[2-ethane-sulfonic acid] (HEPES), pH 7.4 and 1.5 mg/ml of 6-methoxy-N-(3-sulfopropyl)quinolinium (SPQ).
Choride efflux measurements. All fluorescence experiments were carried out using a PTI spectrofluorometer equipped with a thermostated cell holder (37° C.). The dye was excited at 350 nm and emission was recorded at 422 nm, both excitation and emission band widths were set to 5 nm. Liposomes were diluted to a final concentration of 50 μg/ml in a solution containing 100 mM KNO3 and 20 mM MES pH 6.1 or 20 mM HEPES, pH 7.4. Wild type and mutant TNF were added to a final concentration of 3 μg/ml.

C57/BL6 wild type mice = experiment: In situ mouse model of alveolar fluid clearance, wild type mice; assay type: in vivo; conditions: over 15 min, compared to controls; 0.5 μg/mouse instilled
Procedure: In situ mouse model. Mice were killed by an overdose of pentobarbital sodium (200 mg/kg i.p.). A tracheotomy was done with a 20-gauge trimmed angiocath plastic needle (Becton Dickinson, Sandy, Utah, USA). The lungs were inflated with 7 cm H2O continuous positive airway pressure (CPAP) with 100% oxygen throughout the experiments. Body temperature was maintained at 37–38° C. by an infra-red lamp placed 30 cm above the body (Fisher, Santa Clara, Calif., USA). The lamp was cycled on and off to maintain the core temperature. A temperature probe (Yellow Springs Instrument, Yellow Springs, Ohio, USA) was inserted via a 0.5 cm incision into the abdominal cavity to monitor the core temperature throughout the experiment. These methods have been reported in Matthay et al., 1996 and Ma et al., 2000. […] We added 0.1 μCi of ^131I-labelled albumin (Merck-Frost, Montreal, PQ, Canada) to the instillate as a labeled alveolar protein tracer. • Group 1: Basal alveolar fluid clearance in the wild type mice (n=3) and TNF-R1/TNF-R2 double knock out mice (n=3). • Group 2: Effect of wild type mTNF (0.5 μg/mouse) stimulated alveolar fluid clearance was measured in wild type mice (n=5) and TNF-R1/TNF-R2 double knock out mice (n=5) (Bruce et al., 1996).

[2] = Quenching of tryptophan fluorescence by brominated lipids; conditions: acidic pH
From the text: In order to investigate whether chloride efflux was due to membrane binding or membrane insertion of TNF, we have analyzed whether brominated lipids were able to quench the intrinsic fluorescence of TNF and mutTNF upon membrane interaction. Brominated lipids have been useful in determining the topology of membrane proteins (Bolon et al., 1990) (Markello et al., 1985) as well as studying the membrane interaction of pore-forming toxins (Gonzalez-Manas et al., 1992) (Van der Goot et al., 1991) (Vecsey-Semjen et al., 1997). TNF contains two tryptophan residues, one at the top of the receptor binding domain and one at the top of the so called tip domain. If the tip of the TNF trimer were to insert into the lipid bilayer, the fluorescence of Trp-113 should be quenched upon insertion into liposomes composed of dioleoylphosphatidylglycerol that had bromines attached at positions 9 and 10 of the acyl chains. We have indeed previously observed that tryptophans located at the boundary between the lipid head groups and the acyl chains were succeptible to bromide quenching.

TNF: E.coli-derived recombinant murine TNF
chloride efflux (SPQ fluorescence) [1]: induced chloride efflux | increase in alveolar fluid clearance (AFC) (C57/BL6 wild type mice): 24% | fluorescence quenching by brominated lipids [2]: unable to see any fluorescence quenching
